# Reference: PMC7464159, “Triple Negative Breast Cancer and Breast Epithelial Cells Differentially Reprogram Glucose and Lipid Metabolism upon Treatment with Triterpenic Acids” (Biomolecules, 2020)
# Columns and labels:
# MDA-MB-231 cells [1] = test system: MDA-MB-231 cells; design: method as in PMID 22407812; conditions: BA 2.5–10 μM, 48 h; cited from earlier work
# MCF-10A cells [2] = assay: 1H NMR analysis of culture medium supernatants (exometabolome); type: cell-based, human
# Protocol: (§1) MDA-MB-231 and MCF-10A cells were seeded in 10-cm-diameter Petri dishes at a density of 6 × 10^5 cells/mL (10 mL per dish) and cultured for 24 h at 37 °C. Cells were then incubated for 48 h with BA (5 and 15 µM) or UA (10 and 20 µM). Vehicle solvent control cells received DMSO (0.10% v/v). Samples were collected immediately after 48 h incubation or, to assess cellular recovery, medium was replaced with fresh growth medium (without TAs), and cells were incubated for additional 24 h before collection (48 + 24 h samples). Four independent assays were performed.
# (§2) After incubation, culture medium was collected and centrifuged (1000× g, 5 min) and the supernatant stored at −80 °C until analysis. Culture medium without cells was placed under the same conditions and collected. Cell extraction was performed as described by Carrola et al.. Briefly, cells were washed four times with PBS and extracted with a mixture of methanol:chloroform:water (1:1:0.7). The resulting polar and organic phases were collected and then dried under vacuum or under a stream of nitrogen gas, respectively. All samples were stored at −80 °C and, at the time of analysis, dried polar extracts were reconstituted in 600 µL of deuterated phosphate buffer (100 mM, pH 7.4) containing 0.1 mM TSP-d4, while organic extracts were reconstituted in deuterated chloroform containing 0.03% TMS. Regarding medium samples, 540 μL were mixed with 60 μL of D2O containing 0.25% TSP-d4. Prior to analysis, 550 μL of each sample were transferred to 5 mm NMR tubes.
# (§3) ^1H NMR spectra of all samples were acquired on a Bruker Avance III HD 500 NMR spectrometer (University of Aveiro, Portuguese NMR Network) operating at 500.13 MHz for ^1H observation equipped with a 5 mm TXI probe. Standard 1D spectra (Bruker pulse programs ‘noesypr1d’, with water suppression, for medium samples and aqueous extracts, and ‘zg’ for organic extracts) were recorded with a 7002.8 Hz spectral width, 32 k data points, a 2 s relaxation delay and 512 scans. Spectral processing comprised exponential multiplication with 0.3 Hz line broadening, zero filling to 64 k data points, manual phasing, baseline correction, and chemical shift calibration to the TSP or TMS signal at 0 ppm. 2D ^1H-^1H total correlation (TOCSY) spectra, ^1H-^13C heteronuclear single quantum correlation (HSQC) spectra and J-resolved spectra were also registered for selected samples to assist spectral assignment. Metabolites were identified with the support of 2D spectra and the spectral reference databases BBIOREFCODE-2-0-0 (Bruker Biospin, Rheinstetten, Germany) and HMDB [28]. Selected signals were then integrated using the AmixViewer software […] (version 3.9.14, Bruker BioSpin, Rheinstetten, Germany) and normalized by the total spectral area. The magnitude of each metabolite change was assessed through the percentage of variation (and its respective error) in exposed samples relatively to controls, and through the effect size (ES) adjusted for small sample numbers (and respective standard error). Metabolite variations with absolute ES greater than 0.8 were expressed in a heatmap, colored as a function of the percentage of variation, employing the R statistical software.
# MDA-MB-231 cells [3] = assay: as above; type: cell-based, human
# Protocol: as §1, §2, §3
# MDA-MB-231 cells [4] = test system: MDA-MB-231 cells; design: method as in PMID 28213701; conditions: cited from earlier work
# MCF-10A cells [5] = assay: Cell cycle analysis by flow cytometry; type: cell-based, human; conditions: 48 h
# Protocol: (§4) MDA-MB-231 and MCF-10A cells were seeded in six-well plates at a density of 4 × 10^5 cells/mL (2 mL per well) and cultured for 24 h at 37 °C. […] Vehicle solvent control cells received DMSO (0.10% v/v). Then, cells were trypsinized, collected, washed with phosphate buffered saline (PBS) and fixed with 85% cold ethanol. At the time of analysis, cells were centrifuged at 300× g for 5 min at 4 °C and resuspended in PBS, before being treated with RNase (50 µg/mL) and propidium iodide staining solution (50 µg/mL) and incubated, in the dark, for at least 20 min at room temperature. Propidium iodide-stained cells were analyzed on a Coulter EPICS XL (Beckman Coulter, Hialeah, FL, USA) flow cytometer. The results were acquired using the SYSTEM II software (version 3.0 Beckman-Coulter ®, Brea, CA, USA). Four replicates were performed for each treatment, and for each sample at least 5000 nuclei were acquired. Analysis of cell cycle distribution was performed using the FlowJo software (Tree Star, Ashland, USA).
# MDA-MB-231 cells [6] = assay: Cell cycle analysis by flow cytometry; type: cell-based, human; conditions: 48 h
# Protocol: as §4
# MCF-10A cells [7] = test system: MCF-10A cells; design: method as in PMID 29802332, PMID 30684465; conditions: previous studies; cited from earlier work
structure (smiles),measurement,setting,value
"C=C(C)[C@@H]1CC[C@]2(C(=O)O)CC[C@]3(C)[C@H](CC[C@@H]4[C@@]5(C)CC[C@H](O)C(C)(C)[C@@H]5CC[C@]43C)[C@@H]12 [BA, betulinic acid]",cell cycle effect,MDA-MB-231 cells [1],cell cycle arrest at G2/M phase
same,consumption of glucose and pyruvate,MCF-10A cells [2]; 48 h,consumed more
same,excretion of lactate,MCF-10A cells [2]; 48 h,excreting more
same,"consumption of glucose, pyruvate and acetate","MCF-10A cells [2]; BA, 48 + 24 h",decreased
same,formate excretion,"MCF-10A cells [2]; BA, 48 + 24 h",increased
same,"consumption of several amino acids (BCAA, glutamine, phenylalanine, tyrosine)","MCF-10A cells [2]; BA, 48 h",significantly reduced
same,excretion of alanine and fumarate,"MCF-10A cells [2]; BA, 48 h",decreased excretion
same,consumption of leucine,"MDA-MB-231 cells [3]; BA 5µM, 48h",decreased significantly
same,glucose consumption,"MDA-MB-231 cells [3]; BA 15µM, 48h",significant increases
same,lactate excretion,"MDA-MB-231 cells [3]; BA 15 µM, 48 h (already noticed at 5 µM)",significant increases
same,consumption of leucine and pyruvate,"MDA-MB-231 cells [3]; BA, 48 + 24 h",consumed less
same,"excretion of 2-oxoisovalerate, citrate and alanine","MDA-MB-231 cells [3]; BA, 48 + 24 h",excreted less
same,glucose consumption and lactate excretion vs untreated controls,"MDA-MB-231 cells [3]; BA, 48 + 24 h",no longer differences
same,lactate levels and expression of glycolytic enzymes,"MDA-MB-231 cells [4]; BA up to 20 µM, 24 h",did not alter
same,cells at the G0/G1 phase,"MCF-10A cells [5]; 15 µM, vs control",decrease in the G0/G1 phase
same,cells at the G2 phase,"MCF-10A cells [5]; 15 µM, vs control",cell cycle arrest at the G2 phase
same,cells at the S phase,"MCF-10A cells [5]; 15 µM, vs control",increase in the S phase
same,cell population at the S phase,"MDA-MB-231 cells [6]; 15 µM, vs non-exposed control",decreased cell population
same,cells at the G2 phase,"MDA-MB-231 cells [6]; 15 µM, vs non-exposed control",significant accumulation
same,influence on MCF-10A cells viability,MCF-10A cells [7],no influence
"C[C@H]1[C@H](C)CC[C@]2(C(=O)O)CC[C@]3(C)C(=CC[C@@H]4[C@@]5(C)CC[C@H](O)C(C)(C)[C@@H]5CC[C@]43C)[C@H]12 [UA, ursolic acid]",consumption of glucose and pyruvate,MCF-10A cells [2]; 48 h,increasing the consumption
same,excretion of lactate,MCF-10A cells [2]; 48 h,increasing
same,consumption of several amino acids,"MCF-10A cells [2]; UA, 48 h",decreased
same,"consumption of glucose, leucine and choline","MDA-MB-231 cells [3]; UA, 48 + 24 h",decreased consumption
same,"excretion of lactate, 2-oxoisovalerate, citrate, alanine and glutamate","MDA-MB-231 cells [3]; UA, 48 + 24 h",decreased excretion
same,changes in the exometabolome,"MDA-MB-231 cells [3]; UA, 48 h",no significant changes
same,expression of glycolytic enzymes (HK2 and PKM2) and ATP content,MDA-MB-231 cells [4]; UA 5–20 µM,decreased
same,effect on cell cycle phases,"MCF-10A cells [5]; 20 µM, vs untreated",no statistical differences
same,effect on cell cycle phases,"MDA-MB-231 cells [6]; 20 µM, vs untreated",no statistical differences
